In patent US10584116B2, “Heterocyclic sulfonamide derivative and medicine containing same” (EA Pharma Co., Ltd., priority 2016, dated 2020):
pIC50: −log10 of the molar value.

Target: human TRPA1 (Homo sapiens (Human), UniProt O75762)
Assay: Measurement of TRPA1 antagonist activity (intracellular calcium increase induced by allylisothiocyanate in 293T cells transfected with human TRPA1)
Type: cell-based
Conditions: 293T cells expressing human TRPA1, allylisothiocyanate stimulation, FLIPR Calcium4 fluorescence; read-out: hTRPA1 IC50
Procedure: Measurement of TRPA1 Antagonist Activity
Human TRPA1 Expression Plasmid
Using cDNA encoding human TRPA1 (GenBank accession No. NM_007332) (manufactured by Kazusa DNA Research Institute, item No. FHC07217) as a template, primer 1 (SEQ ID NO: 1) and primer 2 (SEQ ID NO: 2), PCR by PfuUltra High-Fidelity DNA Polymerase (Stratagene) was performed, and full-length human TRPA1 gene was amplified.
A recognition site (underlined) of restriction enzyme HindIII was added to the 5′ end of human TRPA1 gene, and XbaI site (underlined) was added to the 3′ end of human TRPA1 gene, and GTT of the template sequence was changed to termination codon TAG (bold). The obtained double stranded DNA was enzyme-digested with HindIII and XbaI, and introduced into a multicloning site of expression plasmid pcDNA3.1/zeo(+) (manufactured by Invitrogen) to give a human TRPA1 expression plasmid.
Human embryonic kidney-derived 293T cells were cultured in Dulbecco's Modified Eagle Medium containing 10% fetal bovine serum, 10 unit penicillin, and 10 μg streptomycin. One day before assay, 3×10^6 of 293T cells were plated on a petri dish having a diameter of 10 cm, and cultured in a CO2 incubator for 24 hr. OPTI-MEM I Reduced Serum Media (Invitrogen) (600 μL), Mirus TransIT-293 (Mirus Bio) (18 μL), and human TRPA1 expression plasmid (6 μg) were mixed, the total amount of the mixture was added to the cells on the petri dish to allow for gene transfer. The cells were recovered about for 8 hr later, plated on a poly-D-lysine coated 384 well black/clear bottom plate at 12,000 cells/well, and cultured overnight.
Measurement of Intracellular Calcium Increase
The medium was removed from the 384 well plate, calcium indicator (Molecular Device, trade name: FLIPR Calcium4 Assay Kit) dissolved in HBSS (Thermo Fisher Scientific) (pH 7.2) containing 20 mM HEPES was added (38 μL/well), and the cells were stained in a CO2 incubator for 1 hr. The 384 well plate was stood at room temperature for not less than 15 min, set on FDSS7000 (Hamamatsu Photonics K.K.), and a test substance solution was added at 10 μL/well. After 10 min, allylisothiocyanate solution (12 μL/well) was added, the relative fluorescence intensity was measured for 5 min after addition of the allylisothiocyanate solution.
Test Substance Preparation
Preparation of Test Substance Solution and Allylisothiocyanate Solution
A test substance solution was prepared to have a composition of HBSS (Thermo Fisher Scientific) (pH 7.2) containing 0.48% dimethyl sulfoxide, a test substance at 4.8-fold concentration of the evaluation concentration, 0.1% bovine serum albumin and 20 mM HEPES. An allylisothiocyanate solution was prepared to have a composition of HBSS (Thermo Fisher Scientific) (pH 7.2) containing 0.1% dimethyl sulfoxide, 100 μM allylisothiocyanate, 0.1% bovine serum albumin and 20 mM HEPES.
Calculation of Antagonist Activity
The activity rate of a test substance at each concentration was calculated, wherein the relative fluorescence intensity change of a well free of a test substance and containing allylisothiocyanate is 100% activity rate, and the relative fluorescence intensity change of a well free of a test substance and allylisothiocyanate is 0% activity rate. The inhibitory rate of a test substance at each concentration was calculated by subtracting the activity rate of the test substance from 100% activity rate, and the concentration of a test substance showing 50% inhibitory rate was calculated as IC50 from the sigmoid approximate curve by XLfit (idbs).

Chain of human TRPA1 (O75762 whole entry): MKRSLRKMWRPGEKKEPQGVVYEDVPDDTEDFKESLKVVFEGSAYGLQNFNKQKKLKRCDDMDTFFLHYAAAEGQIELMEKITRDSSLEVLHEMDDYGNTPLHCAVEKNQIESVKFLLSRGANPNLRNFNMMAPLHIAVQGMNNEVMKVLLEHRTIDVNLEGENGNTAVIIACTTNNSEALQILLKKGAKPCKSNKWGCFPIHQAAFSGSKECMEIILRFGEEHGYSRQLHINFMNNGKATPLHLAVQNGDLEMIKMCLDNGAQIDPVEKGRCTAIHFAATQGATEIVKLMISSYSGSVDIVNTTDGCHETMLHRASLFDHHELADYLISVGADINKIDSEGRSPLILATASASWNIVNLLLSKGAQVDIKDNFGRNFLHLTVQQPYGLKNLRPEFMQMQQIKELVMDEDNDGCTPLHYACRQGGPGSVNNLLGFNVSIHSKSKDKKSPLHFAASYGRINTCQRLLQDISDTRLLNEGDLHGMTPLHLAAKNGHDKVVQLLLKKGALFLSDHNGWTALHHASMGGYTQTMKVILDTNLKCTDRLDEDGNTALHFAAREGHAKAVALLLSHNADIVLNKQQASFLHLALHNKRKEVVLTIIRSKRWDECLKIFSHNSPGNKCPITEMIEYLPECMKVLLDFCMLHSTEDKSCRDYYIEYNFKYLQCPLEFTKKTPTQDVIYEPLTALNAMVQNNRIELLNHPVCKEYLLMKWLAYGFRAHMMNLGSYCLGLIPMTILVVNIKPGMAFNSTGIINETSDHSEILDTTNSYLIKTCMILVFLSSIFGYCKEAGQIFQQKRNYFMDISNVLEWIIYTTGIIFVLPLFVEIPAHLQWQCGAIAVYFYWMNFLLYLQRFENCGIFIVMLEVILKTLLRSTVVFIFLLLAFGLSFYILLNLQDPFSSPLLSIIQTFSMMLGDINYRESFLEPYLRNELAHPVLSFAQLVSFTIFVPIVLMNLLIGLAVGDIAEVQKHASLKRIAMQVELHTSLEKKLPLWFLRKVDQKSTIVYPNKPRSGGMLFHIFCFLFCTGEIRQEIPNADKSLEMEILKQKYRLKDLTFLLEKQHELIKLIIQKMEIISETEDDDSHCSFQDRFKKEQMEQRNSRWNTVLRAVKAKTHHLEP

| Structure (SMILES) | pIC50 |
| --- | --- |
| CC(C)n1c(=O)c(CNC(=O)[C@@H]2CCCN2S(=O)(=O)c2cc3ccccc3o2)cn(-c2ccc(C(F)(F)F)nc2)c1=O [Example 29, (2S)-1-(benzofuran-2-ylsulfonyl)-N-[[3-isopropyl-2,4-dioxo-1-[6-(trifluoromethyl)-3-pyridyl]pyrimidin-5-yl]methyl]pyrrolidine-2-carboxamide] | 7.52 |
| CC(C)n1c(=O)c(CNC(=O)[C@@H]2CCCN2S(=O)(=O)c2ccc(F)cc2)cn(-c2ccc(C(F)(F)F)cc2)c1=O [Example 12, (2S)-1-(4-fluorophenyl)sulfonyl-N-[[3-isopropyl-2,4-dioxo-1-[4-(trifluoromethyl)phenyl]pyrimidin-5-yl]methyl]pyrrolidine-2-carboxamide] | 6.92 |
| CC(C)n1c(=O)c(CNC(=O)[C@@H]2CCCN2S(=O)(=O)c2cc3cnccc3o2)cn(-c2ccc(C(F)(F)F)nc2)c1=O [Example 32, (2S)-1-fro[3,2-c]pyridin-2-ylsulfonyl-N-[[3-isopropyl-2,4-dioxo-1-[6-(trifluoromethyl)-3-pyridyl]pyrimidin-5-yl]methyl]pyrrolidine-2-carboxamide] | 6.24 |
| O=C(NCc1ccc(=O)n(-c2ccc(C(F)(F)F)cc2)c1)[C@@H]1CCCN1S(=O)(=O)c1cc2cc(F)ccc2o1 [Example 22, (2S)-1-(5-fluorobenzofuran-2-yl)sulfonyl-N-[[6-oxo-1-[4-(trifluoromethyl)phenyl]-3-pyridyl]methyl]pyrrolidine-2-carboxamide] | 7.22 |
| CC(C)n1cc(CNC(=O)[C@@H]2CCCN2S(=O)(=O)c2cc3c(F)cccc3o2)cc(-c2ccc(C(F)(F)F)cc2)c1=O [Example 45, (2S)-1-(4-fluorobenzofuran-2-yl)sulfonyl-N-[[1-isopropyl-6-oxo-5-[4-(trifluoromethyl)phenyl]-3-pyridyl]methyl]pyrrolidine-2-carboxamide] | 7.07 |
| CC(C)n1c(=O)c(CNC(=O)[C@@H]2CCCN2S(=O)(=O)c2cc3cc(F)ccc3o2)cn(-c2ccc(C(F)(F)F)cc2)c1=O [Example 3, (2S)-1-(5-fluorobenzofuran-2-yl)sulfonyl-N-[[3-isopropyl-2,4-dioxo-1-[4-(trifluoromethyl)phenyl]-pyrimidin-5-yl]methyl]pyrrolidine-2-carboxamide] | 8.14 |
| CC(C)n1c(=O)c(CNC(=O)[C@@H]2CCCN2S(=O)(=O)c2cc3c(F)cccc3o2)cn(-c2ccc(C(F)(F)F)cc2)c1=O [Example 10, (2S)-1-(4-fluorobenzofuran-2-yl)sulfonyl-N-[[3-isopropyl-2,4-dioxo-1-[4-(trifluoromethyl)phenyl]-pyrimidin-5-yl]methyl]pyrrolidine-2-carboxamide] | 7.60 |
| CC(C)n1c(=O)c(CNC(=O)[C@@H]2CCN2S(=O)(=O)c2cc3cc(F)ccc3o2)cn(-c2ccc(C(F)(F)F)cc2)c1=O [Example 18, (2S)-1-(5-fluorobenzofuran-2-yl)sulfonyl-N-[[3-isopropyl-2,4-dioxo-1-[4-(trifluoromethyl)phenyl]-pyrimidin-5-yl]methyl]azetidine-2-carboxamide] | 8.05 |
| CC(C)n1c(=O)c(CNC(=O)[C@@H]2CCCN2S(=O)(=O)c2cc3cc(F)ccc3o2)cn(-c2ccc(F)cc2)c1=O [Example 39] | 7.00 |
| C[C@H](NS(=O)(=O)c1cc2cc(F)ccc2o1)C(=O)NCc1cn(-c2ccc(C(F)(F)F)cc2)c(=O)n(C)c1=O [Example 6, (2S)-2-[(5-fluorobenzofuran-2-yl)sulfonylamino]-N-[[3-methyl-2,4-dioxo-1-[4-(trifluoromethyl)phenyl]-pyrimidin-5-yl]methyl]propanamide] | 6.27 |
| CC(C)n1c(=O)c(CNC(=O)[C@@H]2CCCN2S(=O)(=O)c2cc3cc(F)ccc3o2)cn(-c2ccc(C(F)(F)F)cn2)c1=O [Example 34, (2S)-1-(5-fluorobenzofuran-2-yl)sulfonyl-N-[[3-isopropyl-2,4-dioxo-1-[5-(trifluoromethyl)-2-pyridyl]pyrimidin-5-yl]methyl]pyrrolidine-2-carboxamide] | 7.74 |
| CC(C)n1cc(-c2ccc(C(F)(F)F)nc2)cc(CNC(=O)[C@@H]2CCCN2S(=O)(=O)c2cc3cc(F)ccc3o2)c1=O [Example 37, (2S)-1-(5-fluorobenzofuran-2-yl)sulfonyl-N-[[1-isopropyl-2-oxo-5-[6-(trifluoromethyl)-3-pyridyl]-3-pyridyl]methyl]pyrrolidine-2-carboxamide] | 7.51 |
| CC(C)n1cc(-c2ccc(C(F)(F)F)cc2)cc(CNC(=O)[C@@H]2CCCN2S(=O)(=O)c2cc3cnccc3o2)c1=O [Example 27, (2S)-1-fro[3,2-c]pyridin-2-ylsulfonyl-N-[[1-isopropyl-2-oxo-5-[4-(trifluoromethyl)phenyl]-3-pyridyl]methyl]pyrrolidine-2-carboxamide] | 7.03 |
| CC(C)n1cc(-c2ccc(C(F)(F)F)cc2)cc(CNC(=O)[C@@H]2CCCN2S(=O)(=O)c2cc3c(F)cccc3o2)c1=O [Example 44, (2S)-1-(4-fluorobenzofuran-2-yl)sulfonyl-N-[[1-isopropyl-2-oxo-5-[4-(trifluoromethyl)phenyl]-3-pyridyl]methyl]pyrrolidine-2-carboxamide] | 6.36 |
| CC(C)n1c(=O)c(CNC(=O)[C@@H]2CCCN2S(=O)(=O)c2ccc(Cl)s2)cn(-c2ccc(C(F)(F)F)cc2)c1=O [Example 11, (2S)-1-[(5-chloro-2-thienyl)sulfonyl]-N-[[3-isopropyl-2,4-dioxo-1-[4-(trifluoromethyl)phenyl]-pyrimidin-5-yl]methyl]pyrrolidine-2-carboxamide] | 7.48 |
| CC(C)n1cc(-c2ccc(C(F)(F)F)nc2)cc(CNC(=O)[C@@H]2CCCN2S(=O)(=O)c2cc3ccccc3o2)c1=O [Example 28, (2S)-1-(benzofuran-2-ylsulfonyl)-N-[[1-isopropyl-2-oxo-5-[6-(trifluoromethyl)-3-pyridyl]-3-pyridyl]methyl]pyrrolidine-2-carboxamide] | 6.74 |
| Cn1c(=O)c(CNC(=O)[C@@H]2CCCN2S(=O)(=O)c2cc3cc(F)ccc3o2)cn(-c2ccc(C(F)(F)F)cc2)c1=O [Example 5, (2S)-1-(5-fluorobenzofuran-2-yl)sulfonyl-N-[[3-methyl-2,4-dioxo-1-[4-(trifluoromethyl)phenyl]-pyrimidin-5-yl]methyl]pyrrolidine-2-carboxamide] | 7.68 |
| CC(C)n1c(=O)c(CNC(=O)[C@@H]2[C@@H](O)CCN2S(=O)(=O)c2cc3ccccc3o2)cn(-c2ccc(C(F)(F)F)cc2)c1=O [Example 7, (2S,3S)-1-(benzofuran-2-ylsulfonyl)-3-hydroxy-N-[[3-isopropyl-2,4-dioxo-1-[4-(trifluoromethyl)phenyl]-pyrimidin-5-yl]methyl]pyrrolidine-2-carboxamide] | 6.66 |
| CC(C)n1c(=O)c(CNC(=O)[C@@H]2CCCN2S(=O)(=O)c2cc3cc(F)ccc3o2)cn(-c2ccc(Cl)cc2)c1=O [Example 41, (2S)-N-[[1-(4-chlorophenyl)-3-isopropyl-2,4-dioxo-pyrimidin-5-yl]methyl]-1-(5-fluorobenzofuran-2-yl)sulfonyl-pyrrolidine-2-carboxamide] | 7.62 |
| O=C(NCc1ccc(=O)n(-c2ccc(C(F)(F)F)cc2)c1)[C@@H]1CCCN1S(=O)(=O)c1cc2ccccc2o1 [Example 14, (2S)-1-(benzofuran-2-ylsulfonyl)-N-[[6-oxo-1-[4-(trifluoromethyl)phenyl]-3-pyridyl]methyl]pyrrolidine-2-carboxamide] | 6.80 |
| CCn1c(=O)c(CNC(=O)[C@@H]2CCCN2S(=O)(=O)c2cc3cc(F)ccc3o2)cn(-c2ccc(C(F)(F)F)cc2)c1=O [Example 4, (2S)-1-(5-fluorobenzofuran-2-yl)sulfonyl-N-[[3-ethyl-2,4-dioxo-1-[4-(trifluoromethyl)phenyl]pyrimidin-5-yl]methyl]pyrrolidine-2-carboxamide] | 7.96 |
